The values that follow come from patent US5198433A, “Lactamimides as calcium antagonists” (Merrell Dow Pharmaceuticals Inc., priority 1992, dated 1993).

In assay [1] the target is T1, K^+ -depolarized guinea pig ileum or taenia (Cavia porcellus).
T1 construct: pieces of ileum, 2 cm in length, from male guinea pigs (200-400 g) were set up in isolated organ baths; from tissue; host or cells: strips of taenia from the caecum or pieces of ileum of male guinea pigs
Nature of the assay: Antagonism of Ca^++ -induced contractions of K^+ -depolarized guinea pig taenia or ileum. The assay is classed as cell-based. The following applies: for pA2: Table 1, guinea pig ileum or taenia, K^+ -depolarized, Ca^++ -induced contraction, Arunlakshana & Schild; for mean slope (±S.D.) of Schild plot / mean pA2 value (95% confidence interval), Schild plot: FIG. 6, 40 mM K^+ -depolarized guinea pig ileum. On the procedure: Strips of taenia from the caecum or pieces of ileum, 2 cm in length, from male guinea pigs (200-400 g) were set up in isolated organ baths in Ca^++ -free K^+ Tyrode's solution (mM NaCl 137, KCl 40, NaH2 PO4 0.4, NaHCO3 11.9, glucose 5.5) and gassed with 95% O2, 5% CO2 at 37° C. Contractions were measured with isotonic transducers with a 1 g load. Cumulative dose-response curves were obtained. Tissues were then washed and incubated with the compounds for 20-25 minutes and then Ca^++ concentration response curves re-established. […] Dose ratios were determined graphically at ED50 values from the Ca^++ dose-response curve and Schild plots were constructed to determine pA2 value using inverse regression line analysis. Alternatively, when only one concentration of an antagonist was used, pA2 values were calculated according to the method of J. M. Van Rossum, Arch. Int. Pharmacodyn Ther. 143: 299-330 (1963).

Assay [2] deals with [^3 H]d-cis-diltiazem binding to rat whole brain membranes (calcium ion-channel protein). Nature of the assay: [^3 H]d-cis-Diltiazem binding assay (displacement from rat whole brain membranes). Particulars: for pKi: Table 1, displacement of 3H diltiazem, rat brain membranes, n = 3, Cheng & Prusoff; for IC50: ligand […]. The arrangement: species or system rat (male Sprague-Dawley). On the procedure: The whole brain from male Sprague-Dawley rats (200-300 g) was dissected and homogenized in cold 50 mM Tris-HCl buffer (pH 7.4) for 2 x 30 second periods by Polytron (Brinkmann, setting No. 5). The homogenate was washed 2 times (48,000 ×g for 10 minutes, 4° C.) with intermittent resuspension of the pellet in fresh buffer. The final pellet was resuspended to an original tissue concentration of 100 mg/ml in Tris-HCl buffer. […] The reaction was terminated by rapid filtration under a vacuum through 0.05% polyethylenimine-pretreated Whatman GF/B glass fiber filters. Filters were immediately washed 2 times with 4 ml of cold Tris-HCl buffer. Pretreatment of the filters with 0.05% polyethylenimine served to eliminate [^3 H]d-cis-diltiazem binding to the filter. The filters were dried and the radioactivity in the filters was extracted overnight in scintillation fluid.
For orientation: Displacement assays read how much labelled ligand stays bound in the presence of the test substance.

Assay [3] relates to calcium ion-channel protein. The following applies: [^3 H]nitrendipine as the ligand; cited from earlier work.
The target in assay [4] is T2, [^3 H]nitrendipine binding to rat heart membranes (calcium ion-channel protein) (Rattus norvegicus, UniProt P22002).
T2 construct: Membranes were prepared from the hearts of male Sprague-Dawley rats; from tissue; host or cells: heart membranes of male Sprague-Dawley rats
Nature of the assay: [^3 H]Nitrendipine binding assay (enhancement of binding to rat heart membranes). The following applies: ligand 0.1 nM, mean ± SEM; for activity at 1 µM: 10^-6 M; for activity at 0.1 µM: 10^-7 M. The arrangement: species or system rat (male Sprague-Dawley). On the procedure: Membranes were prepared from the hearts of male Sprague-Dawley rats and [^3 H]nitrendipine binding was conducted as described in detail by H. R. Lee, et al., J. Pharmacol Exp. Ther. 233:611-616, (1985), as modified by F. J. Ehlert, et al., Biochem. Biophys. Rec. Common. 104:937-943, (1982). The ability of compounds tested at 10^-6 and 10^-7 M to enhance [^3 H]nitredepine binding was taken as indicative of diltiazem-like calcium antagonistic properties.
Values are the mean ± SEM of single experiments run in triplicate at
the concentrations of drugs indicated. Ligand concentration was 0.1 nM an
control specific binding was 49.6 ± 1.7 fmol/mg protein.

Each structure is given as a SMILES string.

T1 sequence (O35505 whole entry): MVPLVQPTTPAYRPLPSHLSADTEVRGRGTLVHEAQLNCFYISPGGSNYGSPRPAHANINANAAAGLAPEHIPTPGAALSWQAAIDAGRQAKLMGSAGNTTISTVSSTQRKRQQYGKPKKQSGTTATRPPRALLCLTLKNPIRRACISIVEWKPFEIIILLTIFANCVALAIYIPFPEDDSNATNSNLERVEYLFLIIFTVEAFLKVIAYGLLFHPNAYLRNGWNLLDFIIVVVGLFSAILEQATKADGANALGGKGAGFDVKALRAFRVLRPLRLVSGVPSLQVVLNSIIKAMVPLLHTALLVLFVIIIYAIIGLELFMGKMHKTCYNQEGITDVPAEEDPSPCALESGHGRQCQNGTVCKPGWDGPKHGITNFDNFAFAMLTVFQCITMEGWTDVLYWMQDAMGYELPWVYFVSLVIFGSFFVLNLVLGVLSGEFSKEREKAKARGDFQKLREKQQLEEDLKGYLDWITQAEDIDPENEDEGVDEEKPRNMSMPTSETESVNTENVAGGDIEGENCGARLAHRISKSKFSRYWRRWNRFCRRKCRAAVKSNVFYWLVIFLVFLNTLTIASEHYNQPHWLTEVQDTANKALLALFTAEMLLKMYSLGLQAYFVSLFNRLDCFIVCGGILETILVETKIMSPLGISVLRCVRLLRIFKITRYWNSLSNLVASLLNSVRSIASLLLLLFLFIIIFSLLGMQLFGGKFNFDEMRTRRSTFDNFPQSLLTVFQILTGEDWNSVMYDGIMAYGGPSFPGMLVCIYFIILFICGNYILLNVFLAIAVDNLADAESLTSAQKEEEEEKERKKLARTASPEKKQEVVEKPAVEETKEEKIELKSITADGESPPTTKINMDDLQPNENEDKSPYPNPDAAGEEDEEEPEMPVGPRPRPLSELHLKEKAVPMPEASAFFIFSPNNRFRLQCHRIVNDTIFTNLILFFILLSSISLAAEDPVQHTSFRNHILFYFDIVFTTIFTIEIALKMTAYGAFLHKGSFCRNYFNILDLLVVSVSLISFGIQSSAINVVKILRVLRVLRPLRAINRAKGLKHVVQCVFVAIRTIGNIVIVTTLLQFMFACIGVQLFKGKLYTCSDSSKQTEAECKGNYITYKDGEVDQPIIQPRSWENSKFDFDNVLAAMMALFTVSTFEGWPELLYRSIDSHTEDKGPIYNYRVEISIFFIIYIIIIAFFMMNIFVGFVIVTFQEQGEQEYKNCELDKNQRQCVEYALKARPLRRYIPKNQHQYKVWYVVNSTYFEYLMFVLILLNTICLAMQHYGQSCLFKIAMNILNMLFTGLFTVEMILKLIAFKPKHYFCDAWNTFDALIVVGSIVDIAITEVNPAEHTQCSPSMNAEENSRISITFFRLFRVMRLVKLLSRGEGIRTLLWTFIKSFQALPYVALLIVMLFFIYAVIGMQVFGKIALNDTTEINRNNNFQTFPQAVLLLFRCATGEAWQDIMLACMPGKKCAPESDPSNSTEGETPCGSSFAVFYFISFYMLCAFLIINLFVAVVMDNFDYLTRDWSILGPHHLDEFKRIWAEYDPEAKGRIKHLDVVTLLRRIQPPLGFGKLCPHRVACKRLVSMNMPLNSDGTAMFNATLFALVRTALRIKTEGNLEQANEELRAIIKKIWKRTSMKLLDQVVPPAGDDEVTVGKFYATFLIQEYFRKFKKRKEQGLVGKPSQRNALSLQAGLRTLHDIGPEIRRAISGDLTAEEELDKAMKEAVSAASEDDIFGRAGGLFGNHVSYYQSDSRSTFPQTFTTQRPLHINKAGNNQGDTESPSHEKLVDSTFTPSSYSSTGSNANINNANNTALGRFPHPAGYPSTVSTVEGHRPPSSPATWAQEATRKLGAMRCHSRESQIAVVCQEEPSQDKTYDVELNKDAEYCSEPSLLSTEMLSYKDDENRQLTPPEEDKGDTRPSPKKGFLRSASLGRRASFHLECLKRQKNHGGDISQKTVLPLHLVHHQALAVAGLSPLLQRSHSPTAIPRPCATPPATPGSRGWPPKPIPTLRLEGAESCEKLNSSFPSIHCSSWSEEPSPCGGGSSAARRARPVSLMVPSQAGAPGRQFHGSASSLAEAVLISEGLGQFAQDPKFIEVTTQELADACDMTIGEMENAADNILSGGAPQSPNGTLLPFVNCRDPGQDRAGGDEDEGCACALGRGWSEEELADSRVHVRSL

Consider `CCCC(CN=C1CCCCCCN1)(c1ccccc1)c1ccccc1` [Test Compound 24, 2-[(2,2-diphenylpentyl)imino]octahydroazocine], for which the pA2 in assay [1] (listed as 24) was determined as 6.63.

On to `CCCCOc1ccc(C(N=C2CCCCCN2)c2ccccc2)cc1` (stereo not drawn) [Test Compound 9, 2-[(p-butoxy-α-phenylbenzyl)imino]hexahydroazepine], for which the pKi in assay [2] (25° C.) is recorded as 6.17. The pA2 in assay [1] was found to be 5.86.

As for `COc1ccc([C@@H]2Sc3ccccc3N(CCN(C)C)C(=O)[C@@H]2OC(C)=O)cc1` [Test Compound 17, (1)-cis-5-2-(dimethylamino)etnyl]2,3-dihydro-3-hydroxy-2-(p-methoxyphenyl)-1,5-benzothiazepin-4(5H)-one acetate, reference compound], the “effect on [^3 H]nitrendipine binding” value in assay [3] was “enhances binding”. Moreover, the “mean slope (±S.D.) of Schild plot” value in assay [1] is listed as 1.00 (0.15). In addition, in assay [4] (25° C.), the activity at 1 µM was 83 ± 8% and the activity at 0.1 µM stood at 96 ± 5%. For the same molecule, in assay [4] (37° C.), the activity at 1 µM turned out to be 262 ± 10% and the activity at 0.1 µM amounted to 218 ± 4%.

Turning to `CCCC(CN=C1CCCCCCCCCCCN1)(c1ccccc1)c1ccccc1` [Test Compound 1, N-(2,2-diphenylpentyl)azacyclotridecan-2-imine], the pKi in assay [2] (25° C.) worked out at 6.49. Further, in assay [1], the “mean pA2 value (95% confidence interval), Schild plot” value is 7.27 (6.95-8.12) and the “mean slope (±S.D.) of Schild plot” value is on record as 0.94 (0.21). Moreover, in assay [4] (25° C.), the activity at 1 µM came out at 123 ± 6% and the activity at 0.1 µM was determined as 119 ± 6%. Moreover, in assay [4] (37° C.), the activity at 1 µM was 224 ± 14% and the activity at 0.1 µM worked out at 252 ± 13%.

As for `c1ccc([C@H]2CCC[C@H]2N=C2CCCCCCCN2)cc1` (relative stereo) [Test Compound 14, octahydro-2-[(cis-2-phenylcyclopentyl)imino]azonine], in assay [2] (25° C.), the negative logarithm of the Ki (pKi) was found to be 5.26. In assay [1], this molecule returned a pA2 of 4.84.

Regarding `c1ccc(C(CN=C2CCCCCN2)c2ccccc2)cc1` [Test Compound 21, hexahydro-2-(2,2-diphenylethylimino)azepine], the pA2 in assay [1] turned out to be 6.14.

As to `c1ccc(C(CCN=C2CCCCCN2)c2ccccc2)cc1` [Test Compound 20, hexahydro-2-[3,3-diphenylpropylimino)azepine], the pA2 in assay [1] is 6.19.

Molecule `CC(N=C1CCCCCN1)c1cccc2ccccc12` (single isomer, unassigned; (-)) [Test Compound 26, (-)-hexahydro-N-[1-(1-naphthalenyl)ethyl]2H-azepin-2-imine] yielded a pA2 in assay [1] of 5.18.

In turn, `CC(N=C1CCCCCN1)c1cccc2ccccc12` (single isomer, unassigned; (+)) [Test Compound 25, (+)-hexahydro-N-[1-(1-naphthalenyl)ethyl]2H-azepin-2-imine] displayed a pA2 in assay [1] of 5.47.

As to `c1ccc(C(N=C2CCCCCCN2)C23CC4CC(CC(C4)C2)C3)cc1` (stereo not drawn) [Test Compound 8, 2-[[α-(1-adamantanyl)benzyl]imino]octahydroazocine], the pKi in assay [2] (25° C.) is given as 6.72. The same molecule showed a pA2 in assay [1] of 6.63.

For `C1CCNC(=N[C@@H]2CCC[C@@H]2C2CCCCC2)CC1` (relative stereo) [Test Compound 12, 2-[(cis-2-cyclohexylcyclopentyl)imino]hexahydroazepine], the negative logarithm of the Ki (pKi) in assay [2] (25° C.) worked out at 5.54. Besides, the pA2 in assay [1] is recorded as 5.54.

Consider `Clc1ccc(C(N=C2CCCCCN2)c2ccc(Cl)cc2)cc1` [Test Compound 10, 2-[(p-chloro-α-[p-chlorophenyl]benzyl)imino]hexahydroazepine], for which, in assay [2] (25° C.), the pKi worked out at 6.08. The same molecule gave a pA2 in assay [1] of 6.33.

On to `COc1cc(CN=C2NCCC2=Cc2ccc(C)cc2)ccc1O` [Test Compound 19, 2-methoxy-4-[[[3-[(4-methylphenyl)methylene]-2-pyrrolidinyliden]amino]methyl]phenol], for which the IC50 worked out at 1260 ± 90 nM in assay [2] (25° C.) and 1900 ± 230 nM in assay [2] (37° C.).

As for `COc1ccc(CCN(C)CCCC(C#N)(c2ccc(OC)c(OC)c2)C(C)C)cc1OC` (stereo not shown) [verapamil], in assay [3], the “effect on [^3 H]nitrendipine binding” value is “displaces [^3 H]nitrendipine in a non-competitive manner”.

Molecule `CCCC(CN=C1CCCCCN1)(c1ccccc1)c1ccccc1` [Test Compound 6, hexahydro-2-[(2,2-diphenylpentyl)imino]azepine] yielded a pA2 in assay [1] (listed as 6) of 6.64.

`c1ccc(-c2ccccc2N=C2CCCCCCCCCCCN2)cc1` [Test Compound 2, 2-(o-biphenylylimino)azacyclotridecane]: in assay [1], the “mean pA2 value (95% confidence interval), Schild plot” value is on record as 6.59 (6.33-7.17). In addition, in assay [4] (25° C.), the activity at 1 µM came to 123 ± 10% and the activity at 0.1 µM came out at 117 ± 7%. Besides, in assay [4] (37° C.), the activity at 1 µM worked out at 152 ± 15% and the activity at 0.1 µM was determined as 152 ± 9%.

For `FC(F)(F)c1cccc(C(N=C2CCCCCN2)c2ccccc2)c1` (stereo not shown) [Test Compound 11, hexahydro-N-[phenyl[3-(trifluoromethyl)phenyl]methyl]-2H-azepin-2-imine], the pKi in assay [2] (25° C.) was 5.92. In addition, in assay [1], the pA2 is on record as 5.60.

For the molecule `c1ccc([C@H]2CCC[C@H]2N=C2CCCCCN2)cc1` (relative stereo) [Test Compound 15, hexahydro-2-[(cis-2-phenylcyclopentyl)imino]azepine], the pKi in assay [2] (25° C.) is reported as 4.16.

On to `CCCC(CN=C1CCCCCCN1)(c1ccccc1)c1ccccc1` [Test Compound 5, 2-[(2,2-diphenylpentyl)imino]octahydroazocine], for which, in assay [1] (listed as 5), the pA2 turned out to be 6.60. Also, in assay [4] (37° C.), the activity at 1 µM was 122 ± 3% and the activity at 0.1 µM amounted to 111 ± 9%.

Regarding `c1ccc([C@@H]2CCC[C@@H]2N=C2CCCN2)cc1` (relative stereo) [Test Compound 16], the pKi in assay [2] (25° C.) came out at 4.96.

In assay [1] (listed as 22), `CCCC(CN=C1CCCCCN1)(c1ccccc1)c1ccccc1` [Test Compound 22, hexahydro-2-[(2,2-diphenylpentyl)imino]azepine] displayed a pA2 of 6.31.

The molecule `CCCC(CN=C1CCCCN1)(c1ccccc1)c1ccccc1` [Test Compound 7, 2-[(2,2-diphenylpentyl)imino]piperidine] showed a pA2 in assay [1] (listed as 7) of 6.15.

As for `C1CCNC(=NC2C3CC4CC(C3)CC2C4)CC1` (stereo not shown) [Test Compound 13, 2-(2-adamantanylimino)hexahydroazepine], the pKi in assay [2] (25° C.) was 4.70. Further, in assay [1], the pA2 worked out at 5.47.

In assay [1] (listed as 23), `CCCC(CN=C1CCCCN1)(c1ccccc1)c1ccccc1` [Test Compound 23, 2-[(2,2-diphenylpentyl)imino]piperidine] had a pA2 of 6.04.

Take `C1CCCCCNC(=NC2CC3CCC2C3)CCCCC1` (stereo not shown) [Test Compound 4, 2-(2-norbornylimino)azacyclotridecane]: the pKi in assay [2] (25° C.) turned out to be 5.92. The molecule further showed a pA2 in assay [1] of 6.07. For the same molecule, in assay [4] (25° C.), the activity at 1 µM worked out at 106 ± 4% and the activity at 0.1 µM is 105 ± 4%. In addition, in assay [4] (37° C.), the activity at 1 µM is 116 ± 8% and the activity at 0.1 µM was determined as 108 ± 7%.

In general, pA2 refers to the negative logarithm of the molar antagonist concentration that doubles the agonist concentration needed for the same response. Read a low pA2 as a weaker antagonist. One may read the pKi as the Ki on a negative log10 scale, so that one unit is a factor of ten. One may read the IC50 as the concentration at which inhibition is half-maximal.
